Here are results for 23 compounds from patent US20070185161A1, “Bicyclic substituted indole-derivative steroid hormone nuclear receptor modulators” (priority 2004, published 2007).

Each structure is given as a SMILES string.

The target of this experiment is T1, human MR (Homo sapiens, UniProt P08235).
T1 construct: The full length human MR gene is cloned from a human kidney or human brain cDNA library; made in house; host or cells: SF9 insect cells (baculovirus)
T1 sequence (P08235 1-984): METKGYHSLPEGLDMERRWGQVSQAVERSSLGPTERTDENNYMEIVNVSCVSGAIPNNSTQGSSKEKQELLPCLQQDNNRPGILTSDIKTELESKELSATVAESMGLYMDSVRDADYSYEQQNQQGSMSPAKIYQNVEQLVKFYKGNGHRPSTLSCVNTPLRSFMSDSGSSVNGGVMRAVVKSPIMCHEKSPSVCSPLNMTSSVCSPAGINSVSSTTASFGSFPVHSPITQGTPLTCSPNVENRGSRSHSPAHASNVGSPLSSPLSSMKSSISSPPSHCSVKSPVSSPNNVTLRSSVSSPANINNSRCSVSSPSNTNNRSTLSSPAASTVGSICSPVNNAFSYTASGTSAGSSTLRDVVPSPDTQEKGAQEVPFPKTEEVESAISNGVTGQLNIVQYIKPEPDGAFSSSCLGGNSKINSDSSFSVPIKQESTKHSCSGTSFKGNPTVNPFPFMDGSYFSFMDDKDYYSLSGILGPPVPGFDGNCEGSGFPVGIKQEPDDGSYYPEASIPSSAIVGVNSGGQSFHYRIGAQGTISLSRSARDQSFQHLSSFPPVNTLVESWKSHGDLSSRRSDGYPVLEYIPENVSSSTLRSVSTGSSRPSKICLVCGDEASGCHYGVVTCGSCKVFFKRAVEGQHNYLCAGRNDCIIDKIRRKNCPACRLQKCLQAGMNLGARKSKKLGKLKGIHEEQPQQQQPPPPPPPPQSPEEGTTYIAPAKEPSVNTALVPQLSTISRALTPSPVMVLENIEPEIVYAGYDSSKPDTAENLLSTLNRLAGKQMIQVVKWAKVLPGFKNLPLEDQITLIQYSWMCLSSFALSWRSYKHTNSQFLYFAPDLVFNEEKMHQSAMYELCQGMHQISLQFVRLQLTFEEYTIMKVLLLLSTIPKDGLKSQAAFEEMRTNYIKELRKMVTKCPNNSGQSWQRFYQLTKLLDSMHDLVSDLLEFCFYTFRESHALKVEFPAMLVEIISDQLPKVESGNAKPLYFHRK
Briefly: Mineralocorticoid Receptor Binding Assay (Method 1). Particulars: [3H]-aldosterone, racemic mixture unless otherwise indicated. Here is the method: The full length human MR gene is cloned from a human kidney or human brain cDNA library. Briefly, using synthetic oligonucleotide primers (Eli Lilly and Company, Indianapolis) directed to nucleotides 20-54 and 3700-3666 of the human MR, polymerase chain reaction (PCR) is performed under standard conditions using a human cDNA library. The PCR reaction is performed in a final volume of 50 μl containing about 1 μl of a 50× stock solution of polymerase; about 1 μl of a 50× stock solution of dNTP; about 5 μl of an appropriate PCR buffer; about 1 μl of each primer; about 5 μl of a H. kidney or H. brain cDNA library; and about 36 μl of water. The reaction is allowed to denature for about 30 seconds at 95 degrees Celsius, anneal for about 30 seconds at 55 degrees Celsius, and extend for about 5 minutes at 72 degrees Celsius, the sequence being repeated for a total of about 35 cycles. The desired PCR product (3.68 Kb) is confirmed by gel electrophoresis and subsequently cut from the gel and stored at about −20 degrees Celsius until extraction. To extract the cDNA product from the agarose gel, the QIAEX II Gel Extraction protocol (QIAGEN, Inc.) is employed according to the manufacturer's instructions. Following extraction, the MR cDNA is cloned into an appropriate cloning vector (Zero Blunt TOPO PCR Cloning Kit (Invitrogen, Inc.) and a pAcHLT-baculovirus transfer vector (B.D./Pharminogen), then expressed in SF9 insect cells, essentially according to manufacturer's instructions. Sf9 cells are grown at a scale where gram quantity cell pellets are obtained for subsequent use in the MR binding assay. Harvested cell pellets are lysed by repeated freeze-thaw cycles (about 4) in a suitable lysis buffer then centrifuged at about 1×10^3 G (with the supernatant being saved for future assays).
MR binding assays are performed in a final total volume of about 250 μl containing about 20-25 μg of protein and 0.5 nM of [^3H]-aldosterone plus varying concentrations of test compound or vehicle. The assay binding buffer consists of 30 mM sodium molybdate, 30 mM of TRIS-HCl, 5 mM sodium phosphate, 5 mM sodium pyrophosphate, and about 10% glycerol, pH=7.5.
Briefly, assays are prepared at RT in 96-well Falcon 3072 plates, each well containing 210 μl of binding buffer, 10 μl of [^3H]-aldosterone, 10 μl of test compound/vehicle, and 20 μl of the resuspended receptor protein extract. Incubations are carried out at 4 degrees Celsius with shaking for about 16 hours. 200 μl aliquots of each incubation are filtered onto Millipore HA 0.45 micron 96-well filter plates, pre-moistened with cold 30 mM TRIS-HCl. The filter plates are suctioned dry with vacuum and immediately washed 3× with cold 30 mM TRIS-HCl. The plates are then punched out and the amount of receptor-ligand complex is determined by liquid scintillation counting using 4 ml of Ready Protein Plus™ liquid scintillation cocktail.
IC50 values (defined as the concentration of test compound required to decrease [^3H]-aldosterone binding by 50%) are then determined. Ki values for each respective test compound can then be calculated by application of the Cheng-Prusoff equation as described in Cheng et al., Relationship Between The Inhibition Constant (Ki) and The Concentration of Inhibitor Which Causes 50% Inhibition (IC50) of an Enzymatic Reaction, Biochem. Pharmacol., 22: 3099-31088; (1973).

For orientation: Ki means a dissociation constant, usually derived from enzyme kinetics or from competition with a known ligand. On to `CCC1(c2c[nH]c3c(NS(C)(=O)=O)cccc23)CCc2cc(F)ccc21` (racemic) [Example 1, N-[3-(1-ethyl-5-fluoro-indan-1-yl)-1H-indol-7-yl]-methanesulfonamide], for which the Ki is at most 500 nM.

For the compound `CC1(c2c[nH]c3c(NS(C)(=O)=O)cccc23)CCc2cc(F)ccc21` (racemic) [Example 21, N-[3-(5-Fluoro-1-methyl-indan-1-yl)-1H-indol-7-yl]-methanesulfonamide], the Ki was at most 500 nM.

For `CC1(c2c[nH]c3c(NS(C)(=O)=O)cccc23)CCc2cc(F)cc(F)c21` (racemic) [Example 22, N-[3-(5,7-Difluoro-1-methyl-indan-1-yl)-1H-indol-7-yl]-methanesulfonamide], the Ki is at most 500 nM.

Consider `CCC1(c2c[nH]c3c(NS(C)(=O)=O)cccc23)CCc2cc(F)cc(F)c21` (racemic) [Example 23, N-[3-(1-Ethyl-5,7-difluoro-indan-1-yl)-1H-indol-7-yl]-methanesulfonamide], for which the Ki was at most 500 nM.

Regarding `CC1(c2c[nH]c3c(NS(C)(=O)=O)cccc23)CCCc2cc(F)ccc21` (racemic) [Example 28, N-[3-(6-Fluoro-1-methyl-1,2,3,4-tetrahydro-naphthalen-1-yl)-1H-indol-7-yl]-methanesulfonamide], the Ki is at most 500 nM.

For the compound `CCC1(c2c[nH]c3c(NS(C)(=O)=O)cccc23)CCCc2cc(F)ccc21` (racemic) [Example 29, N-[3-(1-Ethyl-6-fluoro-1,2,3,4-tetrahydro-naphthalen-1-yl)-1H-indol-7-yl]-methanesulfonamide], the Ki is at most 500 nM.

`CCC1(c2c[nH]c3c(NS(C)(=O)=O)cccc23)CCCc2cc(F)cc(F)c21` (racemic) [Example 31, N-[3-(1-Ethyl-6,8-difluoro-1,2,3,4-tetrahydro-naphthalen-1-yl)-1H-indol-7-yl]-methanesulfonamide]: the inhibition constant (Ki) was at most 500 nM.

As to `CC1(c2c[nH]c3c(NS(C)(=O)=O)cccc23)CCOc2cc(F)ccc21` (racemic) [Example 34, N-[3-(7-Fluoro-4-methyl-chroman-4-yl)-1H-indol-7-yl]-methanesulfonamide], the Ki is at most 500 nM.

On to `CCC1(c2c[nH]c3c(NS(C)(=O)=O)cccc23)CCOc2cc(F)ccc21` (racemic) [Example 35, N-[3-(4-Ethyl-7-fluoro-chroman-4-yl)-1H-indol-7-yl]-methanesulfonamide], for which the Ki was at most 500 nM.

Turning to `CCC1(c2c[nH]c3c(NS(C)(=O)=O)cccc23)CCOc2cc(F)cc(F)c21` (racemic) [Example 36, N-[3-(4-Ethyl-5,7-difluoro-chroman-4-yl)-1H-indol-7-yl]-methanesulfonamide], the Ki is at most 500 nM.

Take `CS(=O)(=O)Nc1cccc2c(C3(C4CC4)CCc4cc(F)ccc43)c[nH]c12` (racemic) [Example 39, N-[3-(1-Cyclopropyl-5-fluoro-indan-1-yl)-1H-indol-7-yl]-methanesulfonamide]: the Ki is at most 500 nM.

Regarding `CS(=O)(=O)Nc1cccc2c(C3(CCCO)CCc4cc(F)ccc43)c[nH]c12` (racemic) [Example 40, N-{3-[5-Fluoro-1-(3-hydroxy-propyl)-indan-1-yl]-1H-indol-7-yl}-methanesulfonamide], the Ki was at most 500 nM.

`CCC1(c2c[nH]c3c(NS(C)(=O)=O)cccc23)CCc2cc(F)ccc21` (single isomer, unassigned) [Example 1A, N-[3-(1-ethyl-5-fluoro-indan-1-yl)-1H-indol-7-yl]-methanesulfonamide]: the Ki was at most 500 nM.

As to `CC1(c2c[nH]c3c(NS(C)(=O)=O)cccc23)CCc2cc(F)ccc21` (single isomer, unassigned) [Example 21A, N-[3-(5-Fluoro-1-methyl-indan-1-yl)-1H-indol-7-yl]-methanesulfonamide], the Ki is at most 500 nM.

For the compound `CC1(c2c[nH]c3c(NS(C)(=O)=O)cccc23)CCc2cc(F)ccc21` (single isomer, unassigned) [Example 21B, N-[3-(5-Fluoro-1-methyl-indan-1-yl)-1H-indol-7-yl]-methanesulfonamide], the Ki is at most 500 nM.

With `CC1(c2c[nH]c3c(NS(C)(=O)=O)cccc23)CCc2cc(F)cc(F)c21` (single isomer, unassigned) [Example 22A, N-[3-(5,7-Difluoro-1-methyl-indan-1-yl)-1H-indol-7-yl]-methanesulfonamide], the Ki is at most 500 nM.

Turning to `CC1(c2c[nH]c3c(NS(C)(=O)=O)cccc23)CCc2cc(F)cc(F)c21` (single isomer, unassigned) [Example 22B, N-[3-(5,7-Difluoro-1-methyl-indan-1-yl)-1H-indol-7-yl]-methanesulfonamide], the Ki was at most 500 nM.

On to `CCC1(c2c[nH]c3c(NS(C)(=O)=O)cccc23)CCc2cc(F)cc(F)c21` (single isomer, unassigned) [Example 23A, N-[3-(1-Ethyl-5,7-difluoro-indan-1-yl)-1H-indol-7-yl]-methanesulfonamide], for which the Ki is at most 500 nM.

In the case of `CCC1(c2c[nH]c3c(NS(C)(=O)=O)cccc23)CCc2cc(F)cc(F)c21` (single isomer, unassigned) [Example 23B, N-[3-(1-Ethyl-5,7-difluoro-indan-1-yl)-1H-indol-7-yl]-methanesulfonamide], the Ki was at most 500 nM.

`CC1(c2c[nH]c3c(NS(C)(=O)=O)cccc23)CCCc2cc(F)ccc21` (single isomer, unassigned) [Example 28A, N-[3-(6-Fluoro-1-methyl-1,2,3,4-tetrahydro-naphthalen-1-yl)-1H-indol-7-yl]-methanesulfonamide]: the Ki was at most 500 nM.

Regarding `CC1(c2c[nH]c3c(NS(C)(=O)=O)cccc23)CCCc2cc(F)ccc21` (single isomer, unassigned) [Example 28B, N-[3-(6-Fluoro-1-methyl-1,2,3,4-tetrahydro-naphthalen-1-yl)-1H-indol-7-yl]-methanesulfonamide], the Ki is at most 500 nM.

On to `CCC1(c2c[nH]c3c(NS(C)(=O)=O)cccc23)CCCc2cc(F)ccc21` (single isomer, unassigned) [Example 29A, N-[3-(1-Ethyl-6-fluoro-1,2,3,4-tetrahydro-naphthalen-1-yl)-1H-indol-7-yl]-methanesulfonamide], for which the inhibition constant Ki was at most 500 nM.

Regarding `CCC1(c2c[nH]c3c(NS(C)(=O)=O)cccc23)CCCc2cc(F)ccc21` (single isomer, unassigned) [Example 29B, N-[3-(1-Ethyl-6-fluoro-1,2,3,4-tetrahydro-naphthalen-1-yl)-1H-indol-7-yl]-methanesulfonamide], the Ki is at most 500 nM.
